Legend:
[1] = solubility of TCE in water as a function of temperature (Dickson-type autoclave); type: physicochemical; details: at 298 K; calculated from solubility measured from 298 to 398 K at constant pressure
Excerpt: (§1) The static autoclave experiments are run in Dickson-type, gold-bag rocking autoclaves. The autoclave reaction vessel uses a flexible gold bag sealed with a passivated titanium head and is contained within a large steel pressure vessel. The autoclave design allows periodic sampling of the reaction cell under in situ conditions throughout the course of an experiment without disturbing the temperature and pressure of the run. During the experiment the solution contacts only gold and passivated titanium so that unwanted surface catalytic effects are eliminated. Various combinations of solid, liquid or gaseous catalysts or oxidants are introduced into the reactor in order to study their effects on reaction mechanisms and rates. The sampled fluids and gases are analyzed using a variety of analytical techniques including ICP-ES, IC, GC (using purge and trap), gas MS, GC/MS, and HPLC.
A Dickson-type autoclave, as described above, equipped with a precision high pressure liquid chromatography pump to control pressure was used to measure the solubility of TCE in water as a function of temperature from 298 to 398 K at constant pressure. Obtained results were used to calculate the partial molal thermodynamic quantities for the dissolution reaction of TCE in water at 298 K: ΔGsoln=11.1 (±0.71) KJ/mol, ΔHsoln=3.075 (±0.525) KJ/mol and ΔSsoln=−28.29 (±1.61) J/mol-K.

[2] = hydrous pyrolysis/oxidation of TCE dissolved in water with dissolved oxygen; type: physicochemical; details: temperatures above 90° C.
Excerpt: as §1
All experiments are conducted in non-reactive flexible gold bag hydrothermal systems, so that complications due to experimental artifacts from catalysis by the equipment itself are avoided, and both temperature and pressure can be precisely controlled. Many samples can be taken and tested as the reaction proceeds without affecting the conditions of the reaction itself. […]

ClC=C(Cl)Cl [TCE, trichloroethylene]
ΔGsoln, partial molal quantity for the dissolution reaction in water [1]: 11.1 (±0.71) KJ/mol
ΔHsoln, partial molal quantity for the dissolution reaction in water [1]: 3.075 (±0.525) KJ/mol
ΔSsoln, partial molal quantity for the dissolution reaction in water [1]: −28.29 (±1.61) J/mol-K
decrease of concentration by hydrous pyrolysis/oxidation ([2]; initial runs with high starting concentrations (up to ≧600 ppm)): ≤ 10,000 fold
concentration eventually reached (drinking water MCL) ([2]; initial runs with high starting concentrations): 5 ppb

— patent publication US6387278B1, “Increasing subterranean mobilization of organic contaminants and petroleum by aqueous thermal oxidation” (The Regents of the University of California, priority 2000, dated 2002)
